This passage reports Ki, IC50 and inhibition results from ChEMBL document CHEMBL1145259, “Arylacetamide kappa opioid receptor agonists with reduced cytochrome P450 2D6 inhibitory activity” (Bioorg Med Chem Lett, 2005).

Data set [1] deals with T1, Mu-type opioid receptor (Homo sapiens, UniProt P35372). The data set is described as follows: Inhibitory constant against human Opioid receptor mu 1 using [3H]diprenorphine as radio ligand.
For data set [2], the target named is T2, Delta-type opioid receptor (Homo sapiens, UniProt P41143). Briefly: Inhibitory constant against human Opioid receptor delta 1 using [3H]diprenorphine as radio ligand.
For data set [3], the target named is Cytochrome P450 2D6 (Homo sapiens, UniProt P10635). The data set is described as follows: Inhibition of cytochrome P450 2D6 was determined using MAMC (7-methoxy-4-aminomethyl-coumarin) as substrate. It is filed as ADME.
Data set [4] addresses T1, Mu-type opioid receptor. The data set is described as follows: Percent inhibition against human Opioid receptor mu 1 using [3H]diprenorphine as radio ligand. Also noted: concentration or dose not given beside the values. Conditions: concentration not given here.
Data set [5] has as its target T2, Delta-type opioid receptor. The data set is described as follows: Percent inhibition against human Opioid receptor delta 1 using [3H]diprenorphine as radio ligand. The following applies: concentration not given here.
The target in data set [6] is CYP2D6 (Homo sapiens, UniProt P10635). Briefly: Inhibition of cytochrome P450 2D6 activity was measured by the inhibition of HAMC production at the concentration of 10 uM. The data set is classed as ADME.
The target in data set [7] is T2, Delta-type opioid receptor. The data set is described as follows: Percent inhibition constant against human Opioid receptor delta 1 using [3H]diprenorphine as radio ligand. The following applies: concentration not given here.

T2 sequence (P41143 whole entry): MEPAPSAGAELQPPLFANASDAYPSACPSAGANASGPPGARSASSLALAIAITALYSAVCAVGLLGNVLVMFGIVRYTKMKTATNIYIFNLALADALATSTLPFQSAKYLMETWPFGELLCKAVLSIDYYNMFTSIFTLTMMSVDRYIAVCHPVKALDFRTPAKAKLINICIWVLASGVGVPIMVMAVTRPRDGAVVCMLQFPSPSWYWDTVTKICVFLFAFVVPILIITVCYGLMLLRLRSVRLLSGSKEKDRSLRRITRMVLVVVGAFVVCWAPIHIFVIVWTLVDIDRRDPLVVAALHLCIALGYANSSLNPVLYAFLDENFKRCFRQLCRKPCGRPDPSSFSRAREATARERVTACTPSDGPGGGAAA
Chain of Cytochrome P450 2D6 (P10635 whole entry): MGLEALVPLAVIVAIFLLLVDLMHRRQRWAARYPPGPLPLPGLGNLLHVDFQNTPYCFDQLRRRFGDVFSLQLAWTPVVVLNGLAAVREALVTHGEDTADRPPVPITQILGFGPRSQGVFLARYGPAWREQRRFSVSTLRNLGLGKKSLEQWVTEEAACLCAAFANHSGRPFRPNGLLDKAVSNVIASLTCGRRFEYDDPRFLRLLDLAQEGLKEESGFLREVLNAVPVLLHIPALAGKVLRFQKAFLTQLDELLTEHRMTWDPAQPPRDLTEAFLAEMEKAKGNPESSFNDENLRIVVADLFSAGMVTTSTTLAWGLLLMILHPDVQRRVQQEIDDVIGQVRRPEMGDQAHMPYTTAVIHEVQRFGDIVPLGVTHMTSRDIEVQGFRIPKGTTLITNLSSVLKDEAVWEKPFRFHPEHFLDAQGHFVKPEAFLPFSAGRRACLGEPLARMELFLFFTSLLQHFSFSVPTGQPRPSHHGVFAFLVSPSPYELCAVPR
Chain of CYP2D6 (P10635 whole entry): as above
T1 sequence (P35372 whole entry): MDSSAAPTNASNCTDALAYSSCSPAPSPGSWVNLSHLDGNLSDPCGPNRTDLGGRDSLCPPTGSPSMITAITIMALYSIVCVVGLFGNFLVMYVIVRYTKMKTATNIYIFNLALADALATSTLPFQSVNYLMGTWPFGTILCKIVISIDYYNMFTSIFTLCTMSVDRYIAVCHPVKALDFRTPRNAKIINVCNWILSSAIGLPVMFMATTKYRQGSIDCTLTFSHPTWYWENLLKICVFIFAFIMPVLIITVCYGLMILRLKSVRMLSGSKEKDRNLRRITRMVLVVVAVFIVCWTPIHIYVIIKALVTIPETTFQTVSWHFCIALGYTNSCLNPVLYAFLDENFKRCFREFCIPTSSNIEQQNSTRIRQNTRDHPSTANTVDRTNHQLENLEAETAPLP

What is called Ki is the dissociation constant of the complex between target and ligand, obtained from inhibition or displacement. One may read the IC50 as the concentration at which inhibition is half-maximal. As for `CN(C(=O)Cc1ccc(NS(C)(=O)=O)cc1)[C@H](CN1CC[C@H](O)C1)c1ccccc1`, the Ki in data set [1] is 105 nM; in data set [2], 177 nM. For the same compound, in data set [3], the IC50 is 5530 nM.

Usually inhibition stands for the drop in the measured response relative to a control, in per cent. For the compound `CNC(=O)NCc1ccc(CC(=O)N(C)[C@H](CN2CCCC2)c2ccccc2)cc1`, the Ki in data set [2] was 1300 nM. This compound also came in with an IC50 in data set [3] of 1220 nM. For the same compound, the inhibition in data set [4] came out at 43%.

On to `Cc1ccc(S(=O)(=O)NCc2ccc(CC(=O)N(C)[C@H](CN3CC[C@H](O)C3)c3ccccc3)cc2)cc1`, for which, in data set [2], the Ki was determined as 27 nM. The compound also displayed a concentration for half-maximal inhibition (IC50) in data set [3] of 5650 nM.

In the case of `CC(=O)NCc1cccc(CC(=O)N(C)[C@H](CN2CCCC2)c2ccccc2)c1`, the inhibition turned out to be 15% in data set [5] and 21% in data set [4]. In addition, the IC50 in data set [3] stood at 600 nM.

Regarding `CN(C(=O)Cc1ccc(CNS(=O)(=O)c2ccc(F)cc2)cc1)[C@H](CN1CC[C@H](O)C1)c1ccccc1`, the results for the Ki in data set [1] and in data set [2] were 1080 nM and 63 nM, respectively. In data set [3], this compound yielded an IC50 of 5790 nM.

As to `CN(C(=O)Cc1ccc(CNS(=O)(=O)Cc2ccccc2)cc1)[C@H](CN1CC[C@H](O)C1)c1ccccc1`, in data set [2], the Ki came out at 173 nM. The compound also returned an IC50 in data set [3] of 5700 nM.

Consider `CN(C(=O)Cc1ccc(CNS(C)(=O)=O)cc1)[C@H](CN1CCCC1)c1ccccc1`, for which the values for the Ki in data set [1] and in data set [2] were 440 nM and 1130 nM, respectively. Besides, the inhibition at 10 µM in data set [6] amounted to 45%.

As to `CCCS(=O)(=O)NCc1ccc(CC(=O)N(C)[C@H](CN2CC[C@H](O)C2)c2ccccc2)cc1`, the Ki came to 1050 nM in data set [1] and 124 nM in data set [2]. Also, the inhibition at 10 µM in data set [6] worked out at 27%.

In the case of `CN(C(=O)Cc1ccc(CNS(C)(=O)=O)cc1)[C@H](CN1CC[C@H](O)C1)c1ccccc1`, the Ki in data set [1] was found to be 151 nM; in data set [2], 167 nM. Moreover, in data set [6], 10 µM produced 25% inhibition.

On to `CC(=O)NCc1ccc(CC(=O)N(C)[C@H](CN2CCCC2)c2ccccc2)cc1`, for which the inhibition stood at 0% in data set [5] and 26% in data set [4]. 1110 nM corresponded to half-maximal inhibition in data set [3] (IC50).

With `CN(C(=O)Cc1ccc2c(c1)CN(S(C)(=O)=O)C2)[C@H](CN1CCCC1)c1ccccc1`, the Ki in data set [1] was determined as 74 nM; in data set [2] it was 1500 nM. The same compound yielded an IC50 in data set [3] of 1040 nM.

As for `CN(C(=O)Cc1cccc(CN)c1)[C@H](CN1CCCC1)c1ccccc1`, in data set [1], the Ki was 2300 nM. Moreover, the inhibition in data set [5] came out at 1.4%. Moreover, the IC50 in data set [3] stood at 107 nM.

In the case of `CN(C(=O)Cc1ccc(CNS(=O)(=O)Cc2cccs2)cc1)[C@H](CN1CC[C@H](O)C1)c1ccccc1`, the figures for the Ki in data set [1] and in data set [2] were 1060 nM and 55 nM, respectively. This compound also yielded an IC50 in data set [3] of 4780 nM.

In data set [6], `CC(C)S(=O)(=O)NCc1ccc(CC(=O)N(C)[C@H](CN2CC[C@H](O)C2)c2ccccc2)cc1` gave an inhibition at 10 µM of 27%.

Turning to `CN(C(=O)Cc1ccc(CN)cc1)[C@H](CN1CCCC1)c1ccccc1`, the inhibition came out at 17% in data set [5] and 41% in data set [4]. The IC50 in data set [3] turned out to be 326 nM.

Turning to `CN(C(=O)Cc1ccc(CNS(=O)(=O)c2ccccc2)cc1)[C@H](CN1CC[C@H](O)C1)c1ccccc1`, the half-maximal inhibitory concentration (IC50) in data set [3] came out at 4340 nM.

Take `CN(C(=O)Cc1ccc(Cl)c(Cl)c1)[C@H](CN1CCCC1)c1ccccc1` [ICI-199,441]: the IC50 in data set [3] stood at 26 nM.

`CN(C(=O)Cc1cccc(CNS(C)(=O)=O)c1)[C@H](CN1CCCC1)c1ccccc1` returned an IC50 in data set [3] of 1820 nM.

Turning to `CCS(=O)(=O)NCc1ccc(CC(=O)N(C)[C@H](CN2CC[C@H](O)C2)c2ccccc2)cc1`, the Ki in data set [1] was 1030 nM. In data set [6], this compound gave an inhibition at 10 µM of 31%.

Turning to `CCCCS(=O)(=O)NCc1ccc(CC(=O)N(C)[C@H](CN2CC[C@H](O)C2)c2ccccc2)cc1`, the Ki in data set [1] is 1050 nM; in data set [2], 167 nM. This compound also gave a concentration for half-maximal inhibition (IC50) in data set [3] of 7890 nM.

As for `CC(=O)NCc1ccccc1CC(=O)N(C)[C@H](CN1CCCC1)c1ccccc1`, the Ki in data set [1] was 1240 nM; in data set [2], 900 nM. Half-maximal inhibition in data set [3] (IC50) was put at 35 nM.

On to `CN(C(=O)Cc1ccccc1CN)[C@H](CN1CCCC1)c1ccccc1`, for which the values for the inhibition in data set [7] and in data set [4] were 37% and 29%, respectively. Also, the IC50 in data set [3] worked out at 18 nM.

Regarding `CN(C(=O)Cc1ccccc1)[C@H](CN1CCCC1)c1ccccc1`, in data set [3], the IC50 was determined as 46 nM.

Take `CN(C(=O)Cc1ccc(CCNS(C)(=O)=O)cc1)[C@H](CN1CC[C@H](O)C1)c1ccccc1`: the Ki in data set [2] came to 107 nM. The inhibition at 10 µM in data set [6] came out at 48%.

As for `CN(C(=O)Cc1ccccc1CNS(C)(=O)=O)[C@H](CN1CCCC1)c1ccccc1`, the figures for the Ki in data set [1] and in data set [2] were 570 nM and 898 nM, respectively. Moreover, the IC50 in data set [3] was determined as 295 nM.

With `CN(C(=O)Cc1ccc(CCCNS(C)(=O)=O)cc1)[C@H](CN1CC[C@H](O)C1)c1ccccc1`, the inhibition at 10 µM in data set [6] is 46%.
